Legend:
[1] = Effect on insulin release in rat pancreatic cells at 100 umol/L after 6 hrs by radioimmunoassay; assay type: functional
[2] = system: Adipocyte; test: Effect on 2-deoxy-D-[1-3H]glucose transport in Sprague-Dawley rat adipocytes at 10 uM in presence of insulin by liquid scintillation counting; assay type: functional
[3] = system: Adipocyte; test: Effect on 2-deoxy-D-[1-3H]glucose transport in Sprague-Dawley rat adipocytes at 1 uM in absence of insulin by liquid scintillation counting; assay type: functional
[4] = system: Adipocyte; test: Effect on 2-deoxy-D-[1-3H]glucose transport in Sprague-Dawley rat adipocytes at 10 uM in absence of insulin by liquid scintillation counting; assay type: functional
[5] = system: Adipocyte; test: Effect on 2-deoxy-D-[1-3H]glucose transport in Sprague-Dawley rat adipocytes at 100 uM in absence of insulin by liquid scintillation counting; assay type: functional
[6] = system: Adipocyte; test: Effect on 2-deoxy-D-[1-3H]glucose transport in Sprague-Dawley rat adipocytes at 1 uM in presence of insulin by liquid scintillation counting; assay type: functional
[7] = Effect on insulin release in rat pancreatic cells at 1 umol/L after 6 hrs by radioimmunoassay; assay type: functional
[8] = Effect on insulin release in rat pancreatic cells at 10 umol/L after 6 hrs by radioimmunoassay; assay type: functional
[9] = system: Adipocyte; test: Effect on 2-deoxy-D-[1-3H]glucose transport in Sprague-Dawley rat adipocytes at 100 uM in presence of insulin by liquid scintillation counting; assay type: functional
[10] = Increase in insulin release in rat pancreatic cells at 100 umol/L after 6 hrs by radioimmunoassay relative to basal level; assay type: functional
[11] = system: Adipocyte; test: Increase in glucose absorption in Sprague-Dawley rat adipocytes at 100 uM by liquid scintillation counting relative to basal level; assay type: functional
[12] = Antiplatelet activity in human platelets assessed as inhibition of arachidonic acid-induced platelet aggregation; assay type: functional, cell-based
[13] = system: Mus musculus; test: Protection against collagen-epinephrine-induced mortality in Chinese Kunming cerebral thrombosis mouse model assessed as survival rate at 60 mg/kg, po administered once daily for 7 days measured on day 7 within 15 mins of collagen-epinephrine challenge; assay type: functional
[14] = Antiplatelet activity in human platelets assessed as inhibition of ADP-induced platelet aggregation; assay type: functional, cell-based

## Cc1ccc(NC(=S)NS(=O)(=O)c2ccc(CCNS(=O)(=O)c3ccc(C)cc3)cc2)cc1
[1]
  Activity: 20.87 uIU/ml
[2]
  Activity: 5115.32 disintegrations/minute
[3]
  Activity: 4428.46 disintegrations/minute
[4]
  Activity: 4401.01 disintegrations/minute
[5]
  Activity: 4513.06 disintegrations/minute
[6]
  Activity: 5627.67 disintegrations/minute
[7]
  Activity: 21.99 uIU/ml
[8]
  Activity: 24.24 uIU/ml
[9]
  Activity: 5624.51 disintegrations/minute

## O=C(NC1CCCCC1)NS(=O)(=O)c1ccc(CCNS(=O)(=O)c2ccc(Cl)cc2)cc1
[1]
  Activity: 55.03 uIU/ml
[2]
  Activity: 5933.89 disintegrations/minute
[3]
  Activity: 4576.35 disintegrations/minute
[4]
  Activity: 5878.83 disintegrations/minute
[5]
  Activity: 6632.7 disintegrations/minute
[6]
  Activity: 5217.31 disintegrations/minute
[7]
  Activity: 33.95 uIU/ml
[8]
  Activity: 41.18 uIU/ml
[9]
  Activity: 6521.12 disintegrations/minute

## CC1CCC(NC(=O)NS(=O)(=O)c2ccc(CCNS(=O)(=O)c3ccc(Cl)cc3)cc2)CC1 (centres undefined)
[1]
  Activity: 72.23 uIU/ml
[10]
  fold change (FC): 3.05
[11]
  fold change (FC): 1.57
[2]
  Activity: 6358.77 disintegrations/minute
[3]
  Activity: 5869.85 disintegrations/minute
[4]
  Activity: 6411.7 disintegrations/minute
[5]
  Activity: 6960.26 disintegrations/minute
[6]
  Activity: 5972.68 disintegrations/minute
[7]
  Activity: 38.15 uIU/ml
[8]
  Activity: 41.29 uIU/ml
[9]
  Activity: 7013.28 disintegrations/minute

## CC1CCC(NC(=O)NS(=O)(=O)c2ccc(CCNS(=O)(=O)c3ccccc3)cc2)CC1 (centres undefined)
[1]
  Activity: 52.23 uIU/ml
[7]
  Activity: 32.15 uIU/ml
[8]
  Activity: 41.29 uIU/ml

## Cc1ccc(NC(=S)NS(=O)(=O)c2ccc(CCNS(=O)(=O)c3ccccc3)cc2)cc1
[1]
  Activity: 24.97 uIU/ml
[2]
  Activity: 5644.89 disintegrations/minute
[3]
  Activity: 4377.95 disintegrations/minute
[4]
  Activity: 4385.12 disintegrations/minute
[5]
  Activity: 4663.52 disintegrations/minute
[6]
  Activity: 5319.5 disintegrations/minute
[7]
  Activity: 27.99 uIU/ml
[8]
  Activity: 27.71 uIU/ml
[9]
  Activity: 5761.23 disintegrations/minute

## CC(=O)Oc1ccccc1C(=O)O [ASPIRIN]
[12]
  IC50: 0.35 µM
[13]
  survival at 60 mg/kg: 63.6%
[14]
  IC50: 9.34 µM

## CC(=O)Nc1ccc(S(=O)(=O)NCCc2ccc(S(=O)(=O)NC(=O)NC3CCC(C)CC3)cc2)cc1 (centres undefined)
[1]
  Activity: 28.52 uIU/ml
[2]
  Activity: 6200.35 disintegrations/minute
[3]
  Activity: 4215.36 disintegrations/minute
[4]
  Activity: 5616.15 disintegrations/minute
[5]
  Activity: 6736.82 disintegrations/minute
[6]
  Activity: 5087.78 disintegrations/minute
[7]
  Activity: 30.18 uIU/ml
[8]
  Activity: 36.67 uIU/ml
[9]
  Activity: 6812.33 disintegrations/minute

## O=S(=O)(NCCc1ccc(S(=O)(=O)NC(=S)Nc2ccc(Cl)cc2)cc1)c1ccc(Cl)cc1
[1]
  Activity: 26.07 uIU/ml
[2]
  Activity: 5436.58 disintegrations/minute
[3]
  Activity: 4587.26 disintegrations/minute
[4]
  Activity: 4432.15 disintegrations/minute
[5]
  Activity: 4763.58 disintegrations/minute
[6]
  Activity: 5179.3 disintegrations/minute
[7]
  Activity: 29.46 uIU/ml
[8]
  Activity: 26.37 uIU/ml
[9]
  Activity: 5764.25 disintegrations/minute

## O=C(NC1CCCCC1)NS(=O)(=O)c1ccc(CCNS(=O)(=O)c2ccc(Br)cc2)cc1
[1]
  Activity: 65.98 uIU/ml
[2]
  Activity: 6002.46 disintegrations/minute
[3]
  Activity: 4421.72 disintegrations/minute
[4]
  Activity: 4861.54 disintegrations/minute
[5]
  Activity: 6556.61 disintegrations/minute
[6]
  Activity: 5523.89 disintegrations/minute
[7]
  Activity: 32.09 uIU/ml
[8]
  Activity: 45.01 uIU/ml
[9]
  Activity: 7896.14 disintegrations/minute

## COc1cc(S(=O)(=O)NCCc2ccc(S(=O)(=O)NC(=O)NC3CCC(C)CC3)cc2)ccc1NC(C)=O (centres undefined)
[1]
  Activity: 24.83 uIU/ml
[11]
  fold change (FC): 1.58
[2]
  Activity: 6341.17 disintegrations/minute
[3]
  Activity: 5294.78 disintegrations/minute
[4]
  Activity: 6547.93 disintegrations/minute
[5]
  Activity: 7037.78 disintegrations/minute
[6]
  Activity: 5587.26 disintegrations/minute
[7]
  Activity: 24.57 uIU/ml
[8]
  Activity: 24.47 uIU/ml
[9]
  Activity: 7447.72 disintegrations/minute

## O=S(=O)(NCCc1ccc(S(=O)(=O)NC(=S)Nc2ccc(Cl)cc2)cc1)c1ccccc1
[1]
  Activity: 26.06 uIU/ml
[7]
  Activity: 28.94 uIU/ml
[8]
  Activity: 32.1 uIU/ml

## COc1ccc(NC(=S)NS(=O)(=O)c2ccc(CCNS(=O)(=O)c3ccc(Br)cc3)cc2)cc1
[1]
  Activity: 26.17 uIU/ml
[2]
  Activity: 5234.61 disintegrations/minute
[3]
  Activity: 4125.36 disintegrations/minute
[4]
  Activity: 4026.52 disintegrations/minute
[5]
  Activity: 4335.26 disintegrations/minute
[6]
  Activity: 5177.84 disintegrations/minute
[7]
  Activity: 22.25 uIU/ml
[8]
  Activity: 24.67 uIU/ml
[9]
  Activity: 5069.25 disintegrations/minute

## O=C(NC1CCCCC1)NS(=O)(=O)c1ccc(CCNS(=O)(=O)c2ccccc2)cc1
[1]
  Activity: 31.29 uIU/ml
[7]
  Activity: 22.86 uIU/ml
[8]
  Activity: 28.27 uIU/ml

## COc1ccc(NC(=S)NS(=O)(=O)c2ccc(CCNS(=O)(=O)c3ccccc3)cc2)cc1
[1]
  Activity: 23.42 uIU/ml
[2]
  Activity: 7555.71 disintegrations/minute
[3]
  Activity: 4179.5 disintegrations/minute
[4]
  Activity: 4118.78 disintegrations/minute
[5]
  Activity: 4366.76 disintegrations/minute
[6]
  Activity: 5708.43 disintegrations/minute
[7]
  Activity: 22.86 uIU/ml
[8]
  Activity: 24.98 uIU/ml
[9]
  Activity: 6987.19 disintegrations/minute

## CC(=O)Nc1ccc(S(=O)(=O)NCCc2ccc(S(=O)(=O)NC(=O)NC3CCC(C)CC3)cc2)cc1C (centres undefined)
[1]
  Activity: 37.32 uIU/ml
[2]
  Activity: 6516.9 disintegrations/minute
[3]
  Activity: 4302.19 disintegrations/minute
[4]
  Activity: 4573.8 disintegrations/minute
[5]
  Activity: 5207.81 disintegrations/minute
[6]
  Activity: 6123.02 disintegrations/minute
[7]
  Activity: 23.57 uIU/ml
[8]
  Activity: 27.67 uIU/ml
[9]
  Activity: 7244.87 disintegrations/minute

## Cc1ccc(S(=O)(=O)NCCc2ccc(S(=O)(=O)NC(=O)NC3CCCCC3)cc2)cc1
[1]
  Activity: 25.93 uIU/ml
[2]
  Activity: 5533.15 disintegrations/minute
[3]
  Activity: 4281.3 disintegrations/minute
[4]
  Activity: 4174.59 disintegrations/minute
[5]
  Activity: 4458.36 disintegrations/minute
[6]
  Activity: 5374.21 disintegrations/minute
[7]
  Activity: 22.45 uIU/ml
[8]
  Activity: 22.7 uIU/ml
[9]
  Activity: 5297.11 disintegrations/minute

## CCC1=C(C)CN(C(=O)NCCc2ccc(S(=O)(=O)NC(=O)N[C@H]3CC[C@H](C)CC3)cc2)C1=O [GLIMEPIRIDE]
[1]
  Activity: 48.14 uIU/ml
[10]
  fold change (FC): 2.03
[11]
  fold change (FC): 2.5
[2]
  Activity: 8593.72 disintegrations/minute
[3]
  Activity: 5061.2 disintegrations/minute
[4]
  Activity: 7476.6 disintegrations/minute
[5]
  Activity: 11068.51 disintegrations/minute
[6]
  Activity: 6365.67 disintegrations/minute
[9]
  Activity: 13255.41 disintegrations/minute

## COc1ccc(NC(=S)NS(=O)(=O)c2ccc(CCNS(=O)(=O)c3ccc(Cl)cc3)cc2)cc1
[1]
  Activity: 26.09 uIU/ml
[7]
  Activity: 24.05 uIU/ml
[8]
  Activity: 24.36 uIU/ml

## COc1ccc(NC(=S)NS(=O)(=O)c2ccc(CCNS(=O)(=O)c3ccc(C)cc3)cc2)cc1
[1]
  Activity: 23.69 uIU/ml
[2]
  Activity: 5377.15 disintegrations/minute
[3]
  Activity: 4425.16 disintegrations/minute
[4]
  Activity: 4381.35 disintegrations/minute
[5]
  Activity: 4550.21 disintegrations/minute
[6]
  Activity: 5026.34 disintegrations/minute
[7]
  Activity: 24.48 uIU/ml
[8]
  Activity: 23.5 uIU/ml
[9]
  Activity: 5573.24 disintegrations/minute

## Cc1ccc(S(=O)(=O)NCCc2ccc(S(=O)(=O)NC(=S)Nc3ccc(Cl)cc3)cc2)cc1
[1]
  Activity: 22.25 uIU/ml
[11]
  fold change (FC): 1.59
[2]
  Activity: 5512.62 disintegrations/minute
[3]
  Activity: 5687.31 disintegrations/minute
[4]
  Activity: 6514.04 disintegrations/minute
[5]
  Activity: 7061.15 disintegrations/minute
[6]
  Activity: 5115.18 disintegrations/minute
[7]
  Activity: 23.89 uIU/ml
[8]
  Activity: 23.01 uIU/ml
[9]
  Activity: 7832.17 disintegrations/minute

— ChEMBL document CHEMBL1153286, “Synthesis and biological evaluation of sulfonylurea and thiourea derivatives substituted with benzenesulfonamide groups as potential hypoglycemic agents” (Bioorg Med Chem Lett, 2009)
